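Five concentrations, 48 hours, 96-well plates. GI50: concentration for 50% inhibition of growth.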 Active and inactive are the calls of the source. No stated cut-off is given here; in the data, active = GI50 up to about 1.1 µM and inactive = higher.
Legend:
Experiment in all cases: NCI anticancer screen, dose series, 48 h
[1] = tested on: ACHN
[2] = tested on: CCRF-CEM
[3] = tested on: DU-145
[4] = tested on: EKVX
[5] = tested on: HT-29
[6] = tested on: Hs-578T
[7] = tested on: IGROV-1
[8] = tested on: KM12
[9] = tested on: LOX IMVI
[10] = tested on: MCF7
[11] = tested on: NCI-H23
[12] = tested on: OVCAR-5
[13] = tested on: SF-268
[14] = tested on: SF-295
[15] = tested on: SF-539
[16] = tested on: SK-MEL-5
[17] = tested on: SNB-75
[18] = tested on: SW-620
[19] = tested on: T47D
[20] = tested on: UACC-62

Measured: GI50

N#CCC1C2CC3C(C2=O)C13 (stereo not given)
inactive: [1] > 100 µM | [2] > 100 µM | [3] > 100 µM | [4] > 100 µM | [5] > 100 µM | [6] > 100 µM | [7] > 100 µM | [8] > 100 µM | [9] > 100 µM | [10] > 100 µM | [11] > 100 µM | [12] > 100 µM | [13] > 100 µM | [14] > 100 µM | [15] > 100 µM | [16] > 100 µM | [17] > 100 µM | [18] > 100 µM | [19] > 100 µM | [20] > 100 µM

CCCSc1ccc2[nH]c(/N=C/c3ccco3)cc2c1
inactive: [1] 49.5 µM | [2] 27.6 µM | [3] 63.5 µM | [4] 3.77 µM | [5] 14.3 µM | [6] 29.1 µM | [7] 36.5 µM | [8] 49.4 µM | [9] 37.7 µM | [10] 6.34 µM | [11] 33.8 µM | [12] 6.08 µM | [13] 52.6 µM | [14] > 100 µM | [15] 12.4 µM | [16] 13.7 µM | [17] > 100 µM | [18] 40.2 µM | [19] 38.1 µM | [20] 52.8 µM

O=CN/C=C/c1cccc(O)c1
inactive: [1] 50 µM | [2] 61.1 µM | [3] 57.5 µM | [4] 69.2 µM | [5] 50.4 µM | [6] > 55.2 µM | [7] 55 µM | [8] 62.4 µM | [9] 48.4 µM | [10] > 34 µM | [11] 52.4 µM | [12] 74.6 µM | [13] > 57.5 µM | [14] 48.8 µM | [15] 57.3 µM | [16] > 63.1 µM | [17] > 69.3 µM | [18] 69.7 µM | [19] 63.4 µM | [20] 46.1 µM

COc1nc2ccc(CNc3ccc(C(=O)O)cc3)cc2nc1OC
inactive: [1] > 10 µM | [2] > 10 µM | [3] > 10 µM | [4] > 10 µM | [5] > 10 µM | [6] > 10 µM | [7] > 10 µM | [8] > 10 µM | [9] > 10 µM | [10] > 10 µM | [11] > 10 µM | [12] > 10 µM | [13] > 10 µM | [14] > 10 µM | [15] > 10 µM | [16] > 10 µM | [17] > 10 µM | [18] > 10 µM | [19] > 10 µM | [20] > 10 µM

COc1ccc2nc3ccc(OC)cc3c([S+]([O-])CCCl)c2c1 (stereo not given)
inactive: [1] 2.18 µM | [2] 2.42 µM | [3] 1.99 µM | [4] 10.5 µM | [5] 2.04 µM | [6] 2.24 µM | [7] 2.48 µM | [8] 16.6 µM | [9] 2.4 µM | [10] 2.31 µM | [11] 4.26 µM | [12] 14.9 µM | [13] 6.76 µM | [14] 22.2 µM | [15] 1.72 µM | [16] 14.9 µM | [17] 17.8 µM | [18] 3.3 µM | [19] 2.04 µM | [20] 15.8 µM

From ChEMBL document CHEMBL1201862, “PubChem BioAssay data set” (2004)
